In patent publication US20090270413A1, “DI-T-BUTYLPHENYL PIPERAZINES AS CALCIUM CHANNEL BLOCKERS” (priority 2008, published 2009):

How the values were obtained:
Assay type in all cases: cell-based
[1] = target: T1, Cav3.2 (T-type channel alpha-1H) (Homo sapiens, UniProt O95180); assay: T-type calcium channel voltage-clamp assay, Cav3.2; conditions: read-out: Cav 3.2 IC50
T1 construct: expressed in transfected cells; host or cells: HEK 293
Description: (§1) The T-type calcium channel blocking activity of the compounds of this invention may be readily determined using the methodology well known in the art described by Xia, et al., Assay and Drug Development Tech., 1 (5), 637-645 (2003).
(§2) In a typical experiment ion channel function from HEK 293 cells expressing the T-type channel alpha-1G, H, or I (CaV 3.1, 3.2, 3.3) is recorded to determine the activity of compounds in blocking the calcium current mediated by the T-type channel alpha-1G, H, or I (CaV 3.1, 3.2, 3.3). In this T-type calcium (Ca^2+) antagonist voltage-clamp assay calcium currents are elicited from the resting state of the human alpha-1G, H, or I (CaV 3.1, 3.2, 3.3) calcium channel as follows. Sequence information for T-type (Low-voltage activated) calcium channels are fully disclosed in e.g., U.S. Pat. No. 5,618,720, U.S. Pat. No. 5,686,241, U.S. Pat. No. 5,710,250,U.S. Pat. No. 5,726,035, U.S. Pat. No. 5,792,846, U.S. Pat. No. 5,846,757, U.S. Pat. No. 5,851,824, U.S. Pat. No. 5,874,236, U.S. Pat. No. 5,876,958, U.S. Pat. No. 6,013,474, U.S. Pat. No. 6,057,114, U.S. Pat. No. 6,096,514, WO 99/28342, and J. Neuroscience, 19 (6):1912-1921 (1999). Cells expressing the t-type channels were grown in H3D5 growth media which is comprised DMEM, 6% bovine calf serum (HYCLONE), 30 micromolar Verapamil, 200 microgram/ml Hygromycin B, 1× Penicillin/Streptomycin. Glass pipettes are pulled to a tip diameter of 1-2 micrometer on a pipette puller. The pipettes are filled with the intracellular solution and a chloridized silver wire is inserted along its length, which is then connected to the headstage of the voltage-clamp amplifier. Trypsinization buffer was 0.05% Trypsin, 0.53 mM EDTA. The extracellular recording solution consists of (mM): 130 mM NaCl, 4 mM KCl, 1 mM MgCl2, 2 mM CaCl2, 10 mM HEPES, 30 Glucose, pH 7.4. The internal solution consists of (mM): 135 mM CsMeSO4, 1 MgCl2, 10 CsCl, 5 EGTA, 10 HEPES, pH 7.4, or 135 mM CsCl, 2 MgCl2, 3 MgATP, 2 Na2ATP, 1 Na2GTP, 5 EGTA, 10 HEPES, pH 7.4. Upon insertion of the pipette tip into the bath, the series resistance is noted (acceptable range is between 1-4 megaohm). The junction potential between the pipette and bath solutions is zeroed on the amplifier. The cell is then patched, the patch broken, and, after compensation for series resistance (>=80%), the voltage protocol is applied while recording the whole cell Ca2+ current response. Voltage protocols: (1) −80 mV holding potential every 20 seconds pulse to −20 mV for 40 msec duration; the effectiveness of the drug in inhibiting the current mediated by the channel is measured directly from measuring the reduction in peak current amplitude initiated by the voltage shift from −80 mV to −20 mV; (2). −100 mV holding potential every 15 seconds pulse to −20 mV for 40 msec duration; the effectiveness of the drug in inhibiting the current mediated by the channel is measured directly from measuring the reduction in peak current amplitude initiated by the shift in potential from −100 mV to […]. The difference in block at the two holding potentials was used to determine the effect of drug at differing levels of inactivation induced by the level of resting state potential of the cells. After obtaining control baseline calcium currents, extracellular solutions containing increasing concentrations of a test compound are washed on. Once steady state inhibition at a given compound concentration is reached, a higher concentration of compound is applied. % inhibition of the peak inward control Ca2+ current during the depolarizing step to −20 mV is plotted as a function of compound concentration.

[2] = target: T2, Human Cav2.2 channels (Homo sapiens, UniProt Q00975); assay: Block of Cav2.2 (N-type) channels expressed in HEK293 cells; conditions: for inhibition at 10 µM / inhibition at 30 µM: HEK293; for inhibition at 10 µM: read-out: Cav 2.2 % Inh @ 10 μM; for inhibition at 30 µM: read-out: Cav 2.2 % Inh @ 30 μM; for IC50: read-out: Cav 2.2 IC50
T2 construct: expressed in transfected cells
From the text: Human Cav2.2 channels were stably expressed in HEK293 cells along with alpha2-delta and beta subunits of voltage-gated calcium channels. An inwardly rectifying potassium channel (Kir2.3) was also expressed in these cells to allow more precise control of the cell membrane potential by extracellular potassium concentration. At low bath potassium concentration, the membrane potential is relatively negative, and is depolarized as the bath potassium concentration is raised. In this way, the bath potassium concentration can be used to regulate the voltage-dependent conformations of the channels. Compounds are incubated with cells in the presence of low (4 mM) potassium or elevated (12, 25 or 30 mM) potassium to determine the affinity for compound block of resting (closed) channels at 4 mM potassium or affinity for block of open and inactivated channels at 12, 25 or 30 mM potassium. After the incubation period, Cav2.2 channel opening is triggered by addition of higher concentration of potassium (70 mM final concentration) to further depolarize the cell. The degree of state-dependent block can be estimated from the inhibitory potency of compounds after incubation in different potassium concentrations.
Calcium influx through Cav2.2 channels is determined using a calcium sensitive fluorescent dye in combination with a fluorescent plate reader. Fluorescent changes were measured with either a VIPR (Aurora Instruments) or FLIPR (Molecular Devices) plate reader.
Protocol • 1. Seed cells in Poly-D-Lysine Coated 96 or 384-well plate and keep in a 37° C.-10% CO2 incubator overnight • 2. Remove media, wash cells with 0.2 mL (96-well plate) or 0.05 mL (384-well plate) Dulbecco's Phosphate Buffered Saline (D-PBS) with calcium & magnesium (Invitrogen; 14040) • 3. Add 0.1 mL (96-well plate) or 0.05 mL (384-well plate) of 4 μM fluor-4 (Molecular Probes; F-14202) and 0.02% Pluronic acid (Molecular Probes; P-3000) prepared in D-PBS with calcium & magnesium (Invitrogen; 14040) supplemented with 10 mM Glucose & 10 mM Hepes/NaOH; pH 7.4 • 4. Incubate in the dark at 25° C. for 60-70 min • 5. Remove dye, wash cells with 0.1 mL (96-well plate) or 0.06 mL (384-well plate) of 4, 12, 25, or 30 mM Potassium Pre-polarization Buffer (PPB) • 6. Add 0.1 mL (96-well plate) or 0.03 mL (384-well plate) of 4, 12, 25, 30 mM PPB with or without test compound • 7. Incubate in the dark at 25° C. for 30 min • 8. Read cell plate on VIPR instrument, Excitation=480 nm, Emission=535 nm • 9. With VIPR continuously reading, add 0.1 mL (96-well plate) or 0.03 mL (384-well plate) of Depolarization Buffer (DB), which is 2× the final assay concentration, to the cell plate.
Block of N-type calcium channels is evaluated utilizing the IonWorks HT 384 well automated patch clamp electrophysiology device. This instrument allows synchronous recording from 384 well (48 at a time). A single whole cell recording is made in each well. Whole cell recording is established by perfusion of the internal compartment with amphotericin B.
The voltage protocol is designed to detect use-dependent block. A 2 Hz train of depolarizations (twenty 25 ms steps to +20 mV). The experimental sequence consists of a control train (pre-compound), incubation of cells with compound for 5 minutes, followed by a second train (post-compound). Use dependent block by compounds is estimated by comparing fractional block of the first pulse in the train to block of the 20th pulse.
Parallel patch clamp electrophysiology is performed using IonWorks HT (Molecular Devices Corp) essentially as described by Kiss and colleagues (Kiss et al. 2003; Assay and Drug Development Technologies, 1:127-135). Briefly, a stable HEK 293 cell line (referred to as CBK) expressing the N-type calcium channel subunits (α1B, α2δ, β3a) and an inwardly rectifying potassium channel (Kir2.3) is used to record barium current through the N-type calcium channel. Cells are grown in T75 culture plates to 60-90% confluence before use. […]

[3] = target: T3, Cav3.1 (T-type channel alpha-1G) (Homo sapiens, UniProt O43497); assay: T-type calcium channel voltage-clamp assay, Cav3.1; conditions: read-out: Cav 3.1 IC50
T3 construct: expressed in transfected cells; host or cells: HEK 293
T3 sequence (O43497 whole entry): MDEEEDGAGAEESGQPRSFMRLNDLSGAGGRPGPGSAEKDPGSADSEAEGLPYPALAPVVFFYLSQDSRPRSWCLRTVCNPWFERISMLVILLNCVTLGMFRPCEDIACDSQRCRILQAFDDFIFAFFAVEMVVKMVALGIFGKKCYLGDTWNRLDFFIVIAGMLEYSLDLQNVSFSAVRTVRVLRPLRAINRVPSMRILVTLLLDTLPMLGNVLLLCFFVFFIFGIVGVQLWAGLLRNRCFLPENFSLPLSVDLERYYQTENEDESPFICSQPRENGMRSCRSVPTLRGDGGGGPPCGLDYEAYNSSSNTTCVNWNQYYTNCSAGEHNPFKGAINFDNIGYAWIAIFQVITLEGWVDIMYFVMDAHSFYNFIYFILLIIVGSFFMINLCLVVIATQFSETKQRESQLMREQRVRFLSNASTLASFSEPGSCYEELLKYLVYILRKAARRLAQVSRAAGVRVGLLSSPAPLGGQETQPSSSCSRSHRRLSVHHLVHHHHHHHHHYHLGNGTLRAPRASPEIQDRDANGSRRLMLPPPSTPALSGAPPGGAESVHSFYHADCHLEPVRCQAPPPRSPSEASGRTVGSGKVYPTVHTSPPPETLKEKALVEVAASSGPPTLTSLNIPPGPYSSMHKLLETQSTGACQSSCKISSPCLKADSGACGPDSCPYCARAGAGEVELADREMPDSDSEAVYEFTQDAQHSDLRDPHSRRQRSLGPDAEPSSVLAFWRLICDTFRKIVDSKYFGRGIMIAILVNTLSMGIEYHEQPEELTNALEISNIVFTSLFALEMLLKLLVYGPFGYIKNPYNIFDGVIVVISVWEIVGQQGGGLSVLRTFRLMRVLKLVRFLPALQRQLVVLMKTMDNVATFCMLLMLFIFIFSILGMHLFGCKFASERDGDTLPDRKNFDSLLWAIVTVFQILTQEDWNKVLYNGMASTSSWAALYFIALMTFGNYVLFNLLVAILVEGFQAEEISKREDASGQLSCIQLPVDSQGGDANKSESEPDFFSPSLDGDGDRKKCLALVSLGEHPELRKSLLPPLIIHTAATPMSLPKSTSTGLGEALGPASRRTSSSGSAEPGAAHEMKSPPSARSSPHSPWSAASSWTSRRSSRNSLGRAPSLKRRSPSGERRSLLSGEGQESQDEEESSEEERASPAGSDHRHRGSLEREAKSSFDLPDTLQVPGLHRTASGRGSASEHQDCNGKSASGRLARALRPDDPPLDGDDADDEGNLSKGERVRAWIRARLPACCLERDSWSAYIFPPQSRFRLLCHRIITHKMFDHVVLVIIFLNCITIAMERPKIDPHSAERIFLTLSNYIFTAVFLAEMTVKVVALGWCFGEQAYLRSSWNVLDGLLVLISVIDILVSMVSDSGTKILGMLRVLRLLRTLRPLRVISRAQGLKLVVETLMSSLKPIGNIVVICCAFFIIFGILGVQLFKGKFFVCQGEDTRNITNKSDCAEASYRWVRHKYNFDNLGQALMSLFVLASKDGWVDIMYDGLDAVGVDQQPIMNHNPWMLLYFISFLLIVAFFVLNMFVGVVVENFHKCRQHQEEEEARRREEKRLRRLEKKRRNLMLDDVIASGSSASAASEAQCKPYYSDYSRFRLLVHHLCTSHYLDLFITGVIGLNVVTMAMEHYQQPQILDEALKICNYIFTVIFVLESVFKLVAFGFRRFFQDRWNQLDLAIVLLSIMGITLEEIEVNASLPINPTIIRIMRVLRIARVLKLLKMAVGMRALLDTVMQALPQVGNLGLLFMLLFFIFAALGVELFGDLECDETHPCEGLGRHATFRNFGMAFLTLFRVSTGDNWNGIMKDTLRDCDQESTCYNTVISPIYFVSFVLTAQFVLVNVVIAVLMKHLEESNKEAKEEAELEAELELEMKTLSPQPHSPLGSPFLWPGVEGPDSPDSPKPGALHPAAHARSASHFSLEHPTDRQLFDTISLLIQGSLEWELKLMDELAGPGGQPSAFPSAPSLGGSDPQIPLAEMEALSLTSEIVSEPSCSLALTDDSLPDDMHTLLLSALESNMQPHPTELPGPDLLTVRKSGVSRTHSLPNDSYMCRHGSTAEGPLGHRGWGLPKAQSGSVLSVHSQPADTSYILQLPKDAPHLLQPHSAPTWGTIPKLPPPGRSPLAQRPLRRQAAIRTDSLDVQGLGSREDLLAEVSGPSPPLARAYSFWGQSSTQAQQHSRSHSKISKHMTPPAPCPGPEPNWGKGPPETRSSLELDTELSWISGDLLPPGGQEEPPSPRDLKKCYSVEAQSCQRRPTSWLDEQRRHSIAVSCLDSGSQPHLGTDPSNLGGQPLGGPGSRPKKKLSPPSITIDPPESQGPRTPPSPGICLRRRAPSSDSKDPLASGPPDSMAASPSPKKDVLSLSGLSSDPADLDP
Description: as §1, §2

T1 sequence (O95180 whole entry): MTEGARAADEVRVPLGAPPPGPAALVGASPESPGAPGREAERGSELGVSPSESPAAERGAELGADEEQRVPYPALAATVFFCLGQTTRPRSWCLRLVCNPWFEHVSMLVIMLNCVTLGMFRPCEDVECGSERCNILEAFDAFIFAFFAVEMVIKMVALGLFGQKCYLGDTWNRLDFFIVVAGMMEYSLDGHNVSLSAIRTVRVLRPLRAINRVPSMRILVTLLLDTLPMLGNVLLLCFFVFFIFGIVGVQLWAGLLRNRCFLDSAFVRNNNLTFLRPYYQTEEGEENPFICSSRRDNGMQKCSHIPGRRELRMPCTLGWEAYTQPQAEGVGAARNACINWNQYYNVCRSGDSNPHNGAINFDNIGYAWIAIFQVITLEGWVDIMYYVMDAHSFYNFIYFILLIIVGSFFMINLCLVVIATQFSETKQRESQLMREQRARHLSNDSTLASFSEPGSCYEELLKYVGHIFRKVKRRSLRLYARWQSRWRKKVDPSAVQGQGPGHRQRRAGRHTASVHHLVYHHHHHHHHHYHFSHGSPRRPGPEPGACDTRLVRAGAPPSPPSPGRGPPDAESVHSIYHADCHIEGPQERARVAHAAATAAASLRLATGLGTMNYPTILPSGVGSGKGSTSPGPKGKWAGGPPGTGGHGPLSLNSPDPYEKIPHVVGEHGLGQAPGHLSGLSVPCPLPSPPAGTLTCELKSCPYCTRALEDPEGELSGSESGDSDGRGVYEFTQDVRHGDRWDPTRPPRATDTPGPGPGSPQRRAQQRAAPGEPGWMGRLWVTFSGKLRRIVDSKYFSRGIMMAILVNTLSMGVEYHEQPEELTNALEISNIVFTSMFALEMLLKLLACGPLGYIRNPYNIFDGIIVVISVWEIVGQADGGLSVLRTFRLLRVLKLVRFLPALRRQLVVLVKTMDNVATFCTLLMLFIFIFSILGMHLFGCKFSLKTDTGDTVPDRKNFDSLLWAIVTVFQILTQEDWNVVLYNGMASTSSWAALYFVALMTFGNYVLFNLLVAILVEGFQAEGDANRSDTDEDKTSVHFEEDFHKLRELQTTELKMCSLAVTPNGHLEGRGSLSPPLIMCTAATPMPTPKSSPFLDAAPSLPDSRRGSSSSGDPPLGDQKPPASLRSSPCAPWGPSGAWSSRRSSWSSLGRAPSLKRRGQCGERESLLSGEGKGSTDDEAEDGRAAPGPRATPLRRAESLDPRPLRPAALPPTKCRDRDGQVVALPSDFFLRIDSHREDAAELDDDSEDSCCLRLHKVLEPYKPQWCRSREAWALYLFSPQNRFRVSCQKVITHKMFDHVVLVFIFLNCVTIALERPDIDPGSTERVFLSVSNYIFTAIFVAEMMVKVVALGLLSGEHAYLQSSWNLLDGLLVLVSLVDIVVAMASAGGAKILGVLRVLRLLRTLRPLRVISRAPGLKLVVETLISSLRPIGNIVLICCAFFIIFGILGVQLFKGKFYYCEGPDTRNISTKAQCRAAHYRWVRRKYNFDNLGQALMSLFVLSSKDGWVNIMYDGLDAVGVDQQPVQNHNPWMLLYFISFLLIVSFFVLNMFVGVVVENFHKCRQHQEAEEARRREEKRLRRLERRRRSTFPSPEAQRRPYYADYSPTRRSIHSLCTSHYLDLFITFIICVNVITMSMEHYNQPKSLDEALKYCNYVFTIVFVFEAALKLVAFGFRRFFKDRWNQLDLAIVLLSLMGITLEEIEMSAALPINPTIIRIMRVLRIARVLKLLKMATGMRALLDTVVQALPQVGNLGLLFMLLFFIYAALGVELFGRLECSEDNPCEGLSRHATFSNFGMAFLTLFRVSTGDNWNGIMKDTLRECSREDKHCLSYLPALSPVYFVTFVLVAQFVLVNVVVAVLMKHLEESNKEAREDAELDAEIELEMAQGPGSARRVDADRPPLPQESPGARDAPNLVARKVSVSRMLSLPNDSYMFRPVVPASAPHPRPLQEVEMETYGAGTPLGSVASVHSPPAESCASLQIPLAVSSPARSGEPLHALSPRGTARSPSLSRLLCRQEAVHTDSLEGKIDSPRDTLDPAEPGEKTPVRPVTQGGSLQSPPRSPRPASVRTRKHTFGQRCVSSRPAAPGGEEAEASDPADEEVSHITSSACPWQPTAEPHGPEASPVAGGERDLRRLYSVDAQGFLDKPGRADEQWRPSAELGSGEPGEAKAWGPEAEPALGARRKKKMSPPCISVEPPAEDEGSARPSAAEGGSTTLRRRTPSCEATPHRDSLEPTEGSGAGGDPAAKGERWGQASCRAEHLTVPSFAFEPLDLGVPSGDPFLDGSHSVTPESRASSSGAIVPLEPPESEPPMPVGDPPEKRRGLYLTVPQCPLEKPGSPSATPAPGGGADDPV

| Structure (SMILES) | IC50 [1] [µM] | inhibition at 10 µM [2] [%] | inhibition at 30 µM [2] [%] | IC50 [2] [µM] | IC50 [3] [µM] |
| --- | --- | --- | --- | --- | --- |
| CC(C)c1cc(C(=O)N2CCN(c3cc(C(C)(C)C)cc(C(C)(C)C)c3)CC2)cs1 [Compound 23, (4-(3,5-di-tert-butylphenyl)piperazin-1-yl)(5-isopropylthiophen-3-yl)methanone] | 0.87 | 90 | 97 | 1.4 | 0.8 |
| Cc1ccc(C(=O)N2CCN(c3cc(C(C)(C)C)cc(C(C)(C)C)c3)CC2)s1 [Compound 28, (4-(3,5-di-tert-butylphenyl)piperazin-1-yl)(5-methylthiophen-2-yl)methanone] | 0.96 | 87 | 101 | 2.4 | 0.8 |
| Cc1ccsc1C(=O)N1CCN(c2cc(C(C)(C)C)cc(C(C)(C)C)c2)CC1 [Compound 29, (4-(3,5-di-tert-butylphenyl)piperazin-1-yl)(3-methylthiophen-2-yl)methanone] | 1.01 | 88 | 101 | 2 | 0.84 |
| Cc1nc(C(F)(F)F)ccc1C(=O)N1CCN(c2cc(C(C)(C)C)cc(C(C)(C)C)c2)CC1 [Compound 30, (4-(3,5-di-tert-butylphenyl)piperazin-1-yl)(2-methyl-6-(trifluoromethyl)pyridin-3-yl)methanone] | 1.15 | 91 | 100 | 1.3 | 0.97 |
| CCCSc1ncccc1C(=O)N1CCN(c2cc(C(C)(C)C)cc(C(C)(C)C)c2)CC1 [Compound 31, (4-(3,5-di-tert-butylphenyl)piperazin-1-yl)(2-(propylthio)pyridin-3-yl)methanone] | 1.59 | 99 | 104 | 0.85 | 1.25 |
| Cc1nc(C)c(C(=O)N2CCN(c3cc(C(C)(C)C)cc(C(C)(C)C)c3)CC2)s1 [Compound 32, (4-(3,5-di-tert-butylphenyl)piperazin-1-yl)(2,4-dimethylthiazol-5-yl)methanone] | 1.15 | 98 | 98 | 0.78 | 1.09 |
| CCn1nc(C)cc1C(=O)N1CCN(c2cc(C(C)(C)C)cc(C(C)(C)C)c2)CC1 [Compound 33, (4-(3,5-di-tert-butylphenyl)piperazin-1-yl)(1-ethyl-3-methyl-1H-pyrazol-5-yl)methanone] | 2.52 | 97 | 95 | 0.83 | 2.34 |
| Cc1nc(C(=O)N2CCN(c3cc(C(C)(C)C)cc(C(C)(C)C)c3)CC2)c(C(F)(F)F)o1 [Compound 37, (4-(3,5-di-tert-butylphenyl)piperazin-1-yl)(2-methyl-5-(trifluoromethyl)oxazol-4-yl)methanone] | 2.29 | 94 | 101 | 0.55 | 2.04 |
| CCOc1ncccc1C(=O)N1CCN(c2cc(C(C)(C)C)cc(C(C)(C)C)c2)CC1 [Compound 38, (4-(3,5-di-tert-butylphenyl)piperazin-1-yl)(2-ethoxypyridin-3-yl)methanone] | 2.23 | 107 | 98 | 0.85 | 1.49 |
| Cc1nc(C(F)(F)F)c(C(=O)N2CCN(c3cc(C(C)(C)C)cc(C(C)(C)C)c3)CC2)s1 [Compound 41, (4-(3,5-di-tert-butylphenyl)piperazin-1-yl)(2-methyl-4-(trifluoromethyl)thiazol-5-yl)methanone] | 1.41 | 102 | 107 | 0.83 | 1.51 |
| CCSc1ncccc1C(=O)N1CCN(c2cc(C(C)(C)C)cc(C(C)(C)C)c2)CC1 [Compound 45, (4-(3,5-di-tert-butylphenyl)piperazin-1-yl)(2-(ethylthio)pyridin-3-yl)methanone] | 1.8 | 97 | 101 | 1.08 | 0.96 |
